Results as given in the supplement of paper PMC9663587.

Columns and labels:
[1] = compound: CN(C)C/C=C/C(=O)NC1=CC=C(C=C1)C(=O)NC2=CC=CC(=C2)NC3=NC=NC(=C3)C4=CNC5=CC=CC=C54 [THZ-P1-2]
[2] = compound: CN(C)C/C=C/C(=O)Nc1ccc(O[C@@H]2CCC[C@@H](Nc3ncc(Cl)c(-c4c[nH]c5ccccc45)n3)C2)cc1 [BSJ-01-175]
[3] = compound: CCCCOc1c(C(=O)c2c(F)cc(C)cc2F)c[nH]c2nncc1-2
[4] = compound: CN1CC[C@H](c2c(O)cc(O)c3c(=O)cc(-c4ccccc4Cl)oc23)[C@H](O)C1 [Flavopiridol]; assay: increase in dead-cell fraction, 72 h; higher = more death;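 note: breast cancer cell lines in 384-well plates, stained with Hoechst plus LIVE/DEAD far red dye and imaged, cells above an LDR intensity threshold counted dead, Hoechst-negative corpses included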
[5] = compound: CN(C)C/C=C/C(=O)Nc1ccc(C(=O)Nc2cccc(Nc3ncc(Cl)c(-c4c[nH]c5ccccc45)n3)c2)cc1 [THZ1]; assay: as above
[6] = compound: CN(C)C/C=C/C(=O)Nc1ccc(C(=O)N2CCC[C@@H](Nc3ncc(Cl)c(-c4c[nH]c5ccccc45)n3)C2)cc1 [THZ531]; assay: as above
[7] = compound: CN(C)C(=O)c1cc2cnc(Nc3ccc(N4CCNCC4)cn3)nc2n1C1CCCC1 [LEE011/Ribociclib]; assay: as above
[8] = compound: C=CC(=O)Nc1ccc(C(=O)Nc2[nH]nc3c2CN(C(=O)N[C@H](CN(C)C)c2ccccc2)C3(C)C)cc1 [YKL-5-124]; assay: as above
[9] = compound: CC(=O)c1c(C)c2cnc(Nc3ccc(N4CCN(CCOCCOCCOCCNC(=O)COc5cccc6c5C(=O)N(C5CCC(=O)NC5=O)C6=O)CC4)cn3)nc2n(C2CCCC2)c1=O [BSJ-03-123]; assay: as above
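Throughout, for GR50, 72 h: breast cancer and non-malignant breast epithelial cell lines, Deep Dye Drop or Dye Drop imaging, nine half-log doses, GR normalized to time-zero plates and DMSO-only controls.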

## PDX1206
[1]
  GR50, 72 h: > 10 µM
[2]
  GR50, 72 h: 0.0192 µM
[3]
  GR50, 72 h: 0.00176 µM
[4]; 0.0001 µM
  increase in dead-cell fraction: 0.009
[4]; 0.0003162 µM
  increase in dead-cell fraction: 0.0115
[4]; 0.001 µM
  increase in dead-cell fraction: 0.0015
[4]; 0.003162 µM
  increase in dead-cell fraction: 0.0091
[4]; 0.01 µM
  increase in dead-cell fraction: -0.0105
[4]; 0.03162 µM
  increase in dead-cell fraction: 0.0053
[4]; 0.1 µM
  increase in dead-cell fraction: 0.0408
[4]; 0.3162 µM
  increase in dead-cell fraction: 0.405
[4]; 1 µM
  increase in dead-cell fraction: 0.587
[5]; 0.0001 µM
  increase in dead-cell fraction: -0.0189
[5]; 0.0003162 µM
  increase in dead-cell fraction: 0.0062
[5]; 0.001 µM
  increase in dead-cell fraction: -0.0104
[5]; 0.003162 µM
  increase in dead-cell fraction: -0.008
[5]; 0.01 µM
  increase in dead-cell fraction: -0.0089
[5]; 0.03162 µM
  increase in dead-cell fraction: 0.0587
[5]; 0.1 µM
  increase in dead-cell fraction: 0.346
[5]; 0.3162 µM
  increase in dead-cell fraction: 0.424
[5]; 1 µM
  increase in dead-cell fraction: 0.513
[6]; 0.0001 µM
  increase in dead-cell fraction: -0.0011
[6]; 0.0003162 µM
  increase in dead-cell fraction: 0.0053
[6]; 0.001 µM
  increase in dead-cell fraction: -0.0065
[6]; 0.003162 µM
  increase in dead-cell fraction: -0.0032
[6]; 0.01 µM
  increase in dead-cell fraction: -0.0015
[6]; 0.03162 µM
  increase in dead-cell fraction: -0.0072
[6]; 0.1 µM
  increase in dead-cell fraction: 0.347
[6]; 0.3162 µM
  increase in dead-cell fraction: 0.257
[6]; 1 µM
  increase in dead-cell fraction: 0.344
[7]; 0.001 µM
  increase in dead-cell fraction: -0.0167
[7]; 0.003162 µM
  increase in dead-cell fraction: -0.0241
[7]; 0.01 µM
  increase in dead-cell fraction: 0.009
[7]; 0.03162 µM
  increase in dead-cell fraction: -0.0043
[7]; 0.1 µM
  increase in dead-cell fraction: -0.0009
[7]; 0.3162 µM
  increase in dead-cell fraction: 0.0111
[7]; 1 µM
  increase in dead-cell fraction: -0.0007
[7]; 3.162 µM
  increase in dead-cell fraction: 0.0201
[7]; 10 µM
  increase in dead-cell fraction: 0.0115
[8]; 0.001 µM
  increase in dead-cell fraction: -0.009
[8]; 0.003162 µM
  increase in dead-cell fraction: -0.0048
[8]; 0.01 µM
  increase in dead-cell fraction: 0.0238
[8]; 0.03162 µM
  increase in dead-cell fraction: 0.0116
[8]; 0.1 µM
  increase in dead-cell fraction: 0.0307
[8]; 0.3162 µM
  increase in dead-cell fraction: 0.0443
[8]; 1 µM
  increase in dead-cell fraction: 0.0358
[8]; 3.162 µM
  increase in dead-cell fraction: 0.0858
[8]; 10 µM
  increase in dead-cell fraction: 0.484
[9]; 0.001 µM
  increase in dead-cell fraction: -0.0047
[9]; 0.003162 µM
  increase in dead-cell fraction: -0.004
[9]; 0.01 µM
  increase in dead-cell fraction: -0.0083
[9]; 0.03162 µM
  increase in dead-cell fraction: -0.0021
[9]; 0.1 µM
  increase in dead-cell fraction: -0.0156
[9]; 0.3162 µM
  increase in dead-cell fraction: -0.0027
[9]; 1 µM
  increase in dead-cell fraction: -0.0025
[9]; 3.162 µM
  increase in dead-cell fraction: -0.0175
[9]; 10 µM
  increase in dead-cell fraction: 0.217
